# From PMC3068608 (Journal of medicinal chemistry, 2011)
# Entries after “also recorded” stand apart in the source; their conditions may differ. Like-named read-outs stand apart in the source and are kept apart here.
# Experiments:
# human μ opioid receptor [1] = target: T1, human μ opioid receptor (Homo sapiens, UniProt P35372); assay: [35S]GTPγS binding mediated by the μ opioid receptor, CHO membranes; assay type: biochemical; settings: for pharmacological properties / IC50: μ receptor; for pharmacological properties: [35S]GTPγS; for IC50: inhibition of binding stimulated by 200 nM DAMGO
# T1 sequence (P35372 whole entry): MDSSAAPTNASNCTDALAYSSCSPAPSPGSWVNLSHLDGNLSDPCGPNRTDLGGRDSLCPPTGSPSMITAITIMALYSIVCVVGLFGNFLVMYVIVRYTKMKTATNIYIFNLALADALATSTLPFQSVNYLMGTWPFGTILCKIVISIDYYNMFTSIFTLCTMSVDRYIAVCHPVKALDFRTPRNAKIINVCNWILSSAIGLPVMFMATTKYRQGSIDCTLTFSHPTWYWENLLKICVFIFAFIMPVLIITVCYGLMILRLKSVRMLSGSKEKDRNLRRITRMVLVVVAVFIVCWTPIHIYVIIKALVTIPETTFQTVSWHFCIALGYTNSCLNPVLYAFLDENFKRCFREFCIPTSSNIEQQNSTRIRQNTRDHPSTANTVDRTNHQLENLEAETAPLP
# human κ opioid receptor [2] = target: T2, human κ opioid receptor (Homo sapiens, UniProt P41145); assay: [35S]GTPγS binding mediated by the κ opioid receptor, CHO membranes; assay type: biochemical; settings: for Emax ± SEM (% maximal stimulation): κ receptor, [35S]GTPγS
# T2 sequence (P41145 whole entry): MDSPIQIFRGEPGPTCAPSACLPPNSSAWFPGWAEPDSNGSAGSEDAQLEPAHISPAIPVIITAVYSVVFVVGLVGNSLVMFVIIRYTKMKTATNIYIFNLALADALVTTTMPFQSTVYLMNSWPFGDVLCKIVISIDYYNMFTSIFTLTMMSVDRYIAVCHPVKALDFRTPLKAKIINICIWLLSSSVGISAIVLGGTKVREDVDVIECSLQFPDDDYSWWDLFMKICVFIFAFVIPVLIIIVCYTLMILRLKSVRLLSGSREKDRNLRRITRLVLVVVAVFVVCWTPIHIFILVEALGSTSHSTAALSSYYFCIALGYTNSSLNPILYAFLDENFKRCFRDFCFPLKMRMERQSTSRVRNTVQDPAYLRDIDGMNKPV
# human μ opioid receptor [3] = target: T1, human μ opioid receptor; assay: Opioid receptor binding, [3H]DAMGO, CHO cell membranes; settings: for Ki (nM) ± SEM [3H]DAMGO (μ): CHO membranes, human μ receptor, 25 °C
# human κ opioid receptor [4] = target: T2, human κ opioid receptor; assay: Opioid receptor binding, [3H]U69,593, CHO cell membranes; settings: for Ki (nM) ± SEM [3H]U69,593 (κ): CHO membranes, human κ receptor, 25 °C; for Selectivity σ/κ: ratio of Ki values (δ over κ)
# [5] = acute and chronic treatment; ref [7]; cited from earlier work
# human μ opioid receptor [6] = target: T1, human μ opioid receptor; settings: [35S]GTPγS, ref [5c],[10c]; cited from earlier work
# human κ opioid receptor [7] = target: T2, human κ opioid receptor; settings: [35S]GTPγS, ref [5c],[10c]; cited from earlier work
# human κ opioid receptor [8] = target: T2, human κ opioid receptor; settings: ratio of Ki values (δ over κ), literature compounds; ref [5c], [10c], [11]; cited from earlier work
# human δ opioid receptor [9] = target: T3, human δ opioid receptor (Homo sapiens, UniProt P41143); settings: at 10 μM; ref [5c], [10c], [11]; cited from earlier work
# T3 sequence (P41143 whole entry): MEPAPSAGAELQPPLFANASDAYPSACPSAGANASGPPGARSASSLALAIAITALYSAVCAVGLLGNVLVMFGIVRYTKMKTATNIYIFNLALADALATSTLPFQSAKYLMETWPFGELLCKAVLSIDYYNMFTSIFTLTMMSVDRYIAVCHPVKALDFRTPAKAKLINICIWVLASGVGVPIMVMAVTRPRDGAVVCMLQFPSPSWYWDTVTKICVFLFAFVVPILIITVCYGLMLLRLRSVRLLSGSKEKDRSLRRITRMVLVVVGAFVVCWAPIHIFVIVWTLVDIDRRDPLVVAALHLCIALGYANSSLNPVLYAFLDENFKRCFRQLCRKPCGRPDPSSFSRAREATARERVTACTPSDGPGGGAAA
# human δ opioid receptor [10] = target: T3, human δ opioid receptor; assay: Opioid receptor binding, [3H]naltrindole, CHO cell membranes
compound,measurement,setting,value
"CNc1nc2cc3c(cc2s1)C[C@@H]1[C@@H]2CCCC[C@]32CCN1CC1CC1 [13a, N′-Methylaminothiazolo[5,4-b]-N-cyclopropylmethylmorphinan]",pharmacological properties,human μ opioid receptor [1],partial agonist activity; also recorded: partial agonists
"CNc1nc2cc3c(cc2s1)C[C@@H]1[C@@H]2CCCC[C@]32CCN1CCCF [13c, N′-Methyl-aminothiazolo[5,4-b]-N-fluoropropylmorphinan]",EC50,human κ opioid receptor [2],120 ± 6.7 nM
same,Emax ± SEM (% maximal stimulation),human κ opioid receptor [2],"higher Emax than that of selective agonist U50,488"
same,EC50,human μ opioid receptor [1],420 ± 17 nM
same,pharmacological properties,human μ opioid receptor [1],full agonist activity; also recorded: full agonists
same,IC50,human μ opioid receptor [1],> 10000 nM
"CCCNc1nc2cc3c(cc2s1)C[C@@H]1[C@@H]2CCCC[C@]32CCN1CCCF [16c, N′-Propyl-aminothiazolo[5,4-b]-N-fluoropropylmorphinan]",Ki (nM) ± SEM [3H]DAMGO (μ),human μ opioid receptor [3],low affinity
same,"Ki (nM) ± SEM [3H]U69,593 (κ)",human κ opioid receptor [4],low affinity
"CN(C)c1nc2cc3c(cc2s1)C[C@@H]1[C@@H]2CCCC[C@]32CCN1CC1CC1 [17a, N′, N′-Dimethyl-aminothiazolo[5,4-b]-N-cyclopropylmethylmorphinan]",pharmacological properties,human μ opioid receptor [1],partial agonist activity
"CN(C)c1nc2cc3c(cc2s1)C[C@@H]1[C@@H]2CCCC[C@]32CCN1CCCF [17c, N′, N′-Dimethyl-aminothiazolo[5,4-b]-N-fluoropropylmethylmorphinan]",Ki (nM) ± SEM [3H]DAMGO (μ),human μ opioid receptor [3],low affinity
same,"Ki (nM) ± SEM [3H]U69,593 (κ)",human κ opioid receptor [4],low affinity
"CCNc1nc2cc3c(cc2s1)C[C@@H]1[C@@H]2CCCC[C@]32CCN1CC1CC1 [19a, N′-Ethyl-aminothiazolo[5,4-b]-N-cyclopropylmethylmorphinan]",EC50,human κ opioid receptor [2],22 ± 5.1 nM
same,Emax ± SEM (% maximal stimulation),human κ opioid receptor [2],"higher Emax than that of selective agonist U50,488"
same,EC50,human μ opioid receptor [1],29 ± 4.6 nM
same,pharmacological properties,human μ opioid receptor [1],full agonist activity; also recorded: full agonists
same,IC50,human μ opioid receptor [1],> 10000 nM
"CCNc1nc2cc3c(cc2s1)C[C@@H]1[C@@H]2CCCC[C@]32CCN1CCCF [19c, N′-Ethyl-aminothiazolo[5,4-b]-N-fluoropropylmorphinan]",Emax ± SEM (% maximal stimulation),human κ opioid receptor [2],"higher Emax than that of selective agonist U50,488"
same,pharmacological properties,human μ opioid receptor [1],full agonist activity; also recorded: full agonists
same,IC50,human μ opioid receptor [1],> 10000 nM
Oc1ccc2c(c1)[C@@]13CCCC[C@H]1[C@@H](C2)N(CC1CCC1)CC3 [butorphan],cocaine self-administration,[5],reduced cocaine self-administration dose-dependently
"Oc1ccc2c(c1)[C@@]13CCCC[C@H]1[C@@H](C2)N(CC1CC1)CC3 [compound 1, cyclorphan, reference compound]",pharmacological properties,human μ opioid receptor [6],Partial agonist
same,cocaine self-administration,[5],reduced cocaine self-administration dose-dependently
same,Emax ± SEM (% maximal stimulation),human κ opioid receptor [7],90 ±10 % maximal stimulation
Nc1nc2cc3c(cc2o1)[C@@]12CCCC[C@H]1[C@@H](C3)N(CC1CC1)CC2 [compound 4],Selectivity σ/κ,human κ opioid receptor [8],>192
same,inhibition of [3H]Naltrindole (δ) binding,human δ opioid receptor [9],18% inh at 10 μM
"Nc1nc2cc3c(cc2s1)C[C@@H]1[C@@H]2CCCC[C@]32CCN1CCCF [compound 11, Aminothiazolo[5,4-b]-N-fluoropropylmorphinan]",pharmacological properties,human μ opioid receptor [1],partial agonist activity
"Nc1nc2cc3c(cc2s1)C[C@@H]1[C@@H]2CCCC[C@]32CCN1C[C@@H]1CCCO1 [compound 12, Aminothiazolo[5,4-b]-N-(S)-tetrahydrofurylmethylmorphinan]",pharmacological properties,human μ opioid receptor [1],full agonist activity; also recorded: full agonists
same,IC50,human μ opioid receptor [1],> 10000 nM
"FC(F)(F)CNc1nc2cc3c(cc2s1)C[C@@H]1[C@@H]2CCCC[C@]32CCN1CC1CC1 [compound 15, N′-Trifluoroethyl-aminothiazolo[5,4-b]-N-cyclopropylmethylmorphinan]",Emax ± SEM (% maximal stimulation),human κ opioid receptor [2],"higher Emax than that of selective agonist U50,488"
"c1ccc(Nc2nc3cc4c(cc3s2)C[C@@H]2[C@@H]3CCCC[C@]43CCN2CC2CC2)nc1 [compound 27, N′-(Pyridin-2-yl)-aminothiazolo[5,4-b]-N-cyclopropylmethylmorphinan]",Selectivity σ/κ,human κ opioid receptor [4],>110
"c1c2c(cc3sc(N4CCNCC4)nc13)C[C@@H]1[C@@H]3CCCC[C@]23CCN1CC1CC1 [compound 28, N′-(Piperazin-1-yl)-thiazolo[5,4-b]-N-cyclopropylmethylmorphinan]",Ki,human μ opioid receptor [3],2700 ± 320 nM
same,Ki,human δ opioid receptor [10],> 10000 nM
same,Ki,human κ opioid receptor [4],110 ± 16 nM
same,Selectivity μ/κ,human κ opioid receptor [4]; ratio of Ki values,25
same,Selectivity σ/κ,human κ opioid receptor [4],>91
